Reference: the supplement of paper PMC10883282
± gives the standard deviation of the averaged measurements.

How the values were obtained:
Test in all cases: relative viability vs DMSO control (72 h) (fraction); higher = more viable cells
[1] = system: G401
In short: (§1)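 ATPLite readings, expressed as percent growth and averaged over up to triplicate wells, provided relative viability. Before reading, sarcoma cell lines seeded in 384-well plates to reach 80–90% confluence received 2.5 µl of serially diluted compound after 24 h, from source plates of 10 mM to 0.0002 mM. Plates were held 72 h at 37 °C, 5% CO2, with 0.1% DMSO as vehicle and a 5 µM positive control. The data were rescaled to 1 for full and 0 for none.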

[2] = system: HT1080
In short: as §1

[3] = system: KHOS-NP
In short: as §1

[4] = system: MES-SA
In short: as §1

[5] = system: RD-ES
In short: as §1

[6] = system: RD
In short: as §1

[7] = system: SK-ES-1
In short: as §1

[8] = system: SK-LMS-1
In short: as §1

[9] = system: SW1353
In short: as §1

[10] = system: SW684
In short: as §1

[11] = system: SW872
In short: as §1

[12] = system: VA-ES-BJ
In short: as §1

C[C@@H]1CN(C(=O)c2ccc(NC(=O)c3cc(O[C@H](C)c4c(Cl)ccc(F)c4Cl)c(N)nn3)cc2)C[C@H](C)N1 [Ensartinib]
Conditions | relative viability
[1], 0.00017 µM | 0.954 ± 0.022
[1], 0.00051 µM | 0.983 ± 0.024
[1], 0.00152 µM | 0.98 ± 0.025
[1], 0.00457 µM | 0.9873 ± 0.0051
[1], 0.01372 µM | 1.01 ± 0.039
[1], 0.04115 µM | 1.019 ± 0.0048
[1], 0.1235 µM | 1.05 ± 0.055
[1], 0.3704 µM | 0.946 ± 0.018
[1], 1.111 µM | 0.771 ± 0.026
[1], 3.333 µM | 0.49 ± 0.018
[1], 10 µM | 0.0293 ± 0.0073
[2], 0.00017 µM | 1.02 ± 0.027
[2], 0.00051 µM | 1 ± 0.06
[2], 0.00152 µM | 0.993 ± 0.012
[2], 0.00457 µM | 1.03 ± 0.019
[2], 0.01372 µM | 1.03 ± 0.028
[2], 0.04115 µM | 0.9998 ± 0.0066
[2], 0.1235 µM | 1.04 ± 0.029
[2], 0.3704 µM | 1.04 ± 0.034
[2], 1.111 µM | 1.02 ± 0.045
[2], 3.333 µM | 0.837 ± 0.0086
[2], 10 µM | 0.0183 ± 0.0025
[3], 0.00017 µM | 1.02 ± 0.018
[3], 0.00051 µM | 1.04 ± 0.05
[3], 0.00152 µM | 1.03 ± 0.021
[3], 0.00457 µM | 1.03 ± 0.029
[3], 0.01372 µM | 1.04 ± 0.014
[3], 0.04115 µM | 1.03 ± 0.017
[3], 0.1235 µM | 1.03 ± 0.04
[3], 0.3704 µM | 1.03 ± 0.03
[3], 1.111 µM | 1.02 ± 0.013
[3], 3.333 µM | 0.987 ± 0.025
[3], 10 µM | 0.422 ± 0.069
[4], 0.00017 µM | 0.921 ± 0.064
[4], 0.00051 µM | 0.896 ± 0.057
[4], 0.00152 µM | 0.938 ± 0.029
[4], 0.00457 µM | 0.929 ± 0.029
[4], 0.01372 µM | 0.932 ± 0.025
[4], 0.04115 µM | 0.926 ± 0.048
[4], 0.1235 µM | 0.961 ± 0.034
[4], 0.3704 µM | 0.933 ± 0.035
[4], 1.111 µM | 0.498 ± 0.016
[4], 3.333 µM | 0.296 ± 0.0074
[4], 10 µM | 0.1 ± 0.0096
[5], 0.00017 µM | 0.97 ± 0.035
[5], 0.00051 µM | 0.951 ± 0.032
[5], 0.00152 µM | 0.989 ± 0.042
[5], 0.00457 µM | 0.963 ± 0.025
[5], 0.01372 µM | 0.985 ± 0.038
[5], 0.04115 µM | 0.974 ± 0.039
[5], 0.1235 µM | 0.975 ± 0.029
[5], 0.3704 µM | 0.826 ± 0.051
[5], 1.111 µM | 0.567 ± 0.031
[5], 3.333 µM | 0.0894 ± 0.0084
[5], 10 µM | 0.00693 ± 0.00035
[6], 0.00017 µM | 1.01 ± 0.032
[6], 0.00051 µM | 1.02 ± 0.053
[6], 0.00152 µM | 1.06 ± 0.034
[6], 0.00457 µM | 1.06 ± 0.065
[6], 0.01372 µM | 1.028 ± 0.01
[6], 0.04115 µM | 1.028 ± 0.0074
[6], 0.1235 µM | 0.972 ± 0.033
[6], 0.3704 µM | 0.9011 ± 0.0084
[6], 1.111 µM | 0.683 ± 0.03
[6], 3.333 µM | 0.561 ± 0.011
[6], 10 µM | 0.0738 ± 0.0066
[7], 0.00017 µM | 0.934 ± 0.081
[7], 0.00051 µM | 0.966 ± 0.045
[7], 0.00152 µM | 0.987 ± 0.027
[7], 0.00457 µM | 1 ± 0.04
[7], 0.01372 µM | 0.974 ± 0.012
[7], 0.04115 µM | 0.972 ± 0.043
[7], 0.1235 µM | 0.97 ± 0.068
[7], 0.3704 µM | 0.857 ± 0.072
[7], 1.111 µM | 0.457 ± 0.038
[7], 3.333 µM | 0.0368 ± 0.0014
[7], 10 µM | 0.00643 ± 0.0012
[8], 0.00017 µM | 0.995 ± 0.018
[8], 0.00051 µM | 0.9982 ± 0.0072
[8], 0.00152 µM | 1.01 ± 0.022
[8], 0.00457 µM | 1.04 ± 0.039
[8], 0.01372 µM | 1.03 ± 0.0051
[8], 0.04115 µM | 1.02 ± 0.017
[8], 0.1235 µM | 1.01 ± 0.061
[8], 0.3704 µM | 0.83 ± 0.024
[8], 1.111 µM | 0.656 ± 0.031
[8], 3.333 µM | 0.53 ± 0.0076
[8], 10 µM | 0.0598 ± 0.0024
[9], 0.00017 µM | 0.959 ± 0.049
[9], 0.00051 µM | 0.938 ± 0.025
[9], 0.00152 µM | 0.985 ± 0.013
[9], 0.00457 µM | 0.956 ± 0.029
[9], 0.01372 µM | 0.955 ± 0.049
[9], 0.04115 µM | 0.969 ± 0.024
[9], 0.1235 µM | 0.957 ± 0.045
[9], 0.3704 µM | 0.966 ± 0.026
[9], 1.111 µM | 0.955 ± 0.017
[9], 3.333 µM | 0.77 ± 0.012
[9], 10 µM | 0.0145 ± 0.0019
[10], 0.00017 µM | 1.05 ± 0.025
[10], 0.00051 µM | 1.02 ± 0.013
[10], 0.00152 µM | 1.08 ± 0.042
[10], 0.00457 µM | 1.06 ± 0.035
[10], 0.01372 µM | 1.06 ± 0.017
[10], 0.04115 µM | 1.07 ± 0.052
[10], 0.1235 µM | 1.06 ± 0.034
[10], 0.3704 µM | 1.05 ± 0.023
[10], 1.111 µM | 0.971 ± 0.044
[10], 3.333 µM | 0.829 ± 0.018
[10], 10 µM | 0.113 ± 0.0034
[11], 0.00017 µM | 1.02 ± 0.028
[11], 0.00051 µM | 1.03 ± 0.026
[11], 0.00152 µM | 1.04 ± 0.033
[11], 0.00457 µM | 1.05 ± 0.02
[11], 0.01372 µM | 1.06 ± 0.016
[11], 0.04115 µM | 1.04 ± 0.028
[11], 0.1235 µM | 1.03 ± 0.037
[11], 0.3704 µM | 1.01 ± 0.037
[11], 1.111 µM | 0.835 ± 0.0097
[11], 3.333 µM | 0.583 ± 0.016
[11], 10 µM | 0.188 ± 0.011
[12], 0.00017 µM | 1.05 ± 0.033
[12], 0.00051 µM | 1.02 ± 0.034
[12], 0.00152 µM | 1.03 ± 0.042
[12], 0.00457 µM | 1.03 ± 0.062
[12], 0.01372 µM | 1.06 ± 0.061
[12], 0.04115 µM | 1.05 ± 0.031
[12], 0.1235 µM | 1.02 ± 0.054
[12], 0.3704 µM | 0.855 ± 0.031
[12], 1.111 µM | 0.662 ± 0.042
[12], 3.333 µM | 0.489 ± 0.011
[12], 10 µM | 0.362 ± 0.017
